According to US4996207A, “Three new non-polyglutamatable deazaaminopterins” (priority 1990, dated 1991):
“And” between values parts separate entries of the source, which are not always exact repeats. Equal values may be shown once. “Also recorded” adds a separate entry of the source. Read-outs that look alike come from different tables or passages of the source.

Assays:
[1] = system: H35 hepatoma cells (folinic acid transport); experiment: Inhibition of folinic acid transport to H35 hepatoma cells; assay type: cell-based; details: for IC50: 0.25 h, Folinic acid 2 μM, 15 min uptake, read-out: I50, inhibition of folinic acid transport to H35 hepatoma cells; for transport to H35 hepatoma cells compared to methotrexate: ability to compete with folinic acid transport; for transport to tumor cells compared to methotrexate: fold versus methotrexate
[2] = system: Human manca lymphoid leukemia; experiment: Inhibition of tumor cell growth, Human manca lymphoid leukemia; assay type: cell-based; details: read-out: I50, inhibition of tumor cell growth, Human manca lymphoid leukemia
[3] = result in words, cited from earlier work
[4] = cited from earlier work
[5] = system: CCRF-CEM human leukemia cells; experiment: Inhibition of tumor cell growth, CCRF-CEM human leukemia; assay type: cell-based
[6] = cited from earlier work; remark: listed apart in the source
[7] = system: H35 hepatoma cells; experiment: Inhibition of tumor cell growth, H35 hepatoma; assay type: cell-based; details: read-out: I50, inhibition of tumor cell growth, H35 hepatoma
[8] = target: T1, folylpolyglutamate synthetase (FPGS) (Homo sapiens, UniProt Q05932); experiment: Substrate activity towards CCRF-CEM human leukemia cell folylpolyglutamate synthetase (FPGS); assay type: biochemical; details: for Substrate activity: Conc 50 μM, CCRF-CEM human leukemia cell FPGS; for substrate for folylpolyglutamate synthetase: result in words
T1 construct: purified human leukemia cell folylpolyglutamate synthetase (FPGS); endogenous in cells; host or cells: CCRF-CEM human leukemia cells
T1 sequence (Q05932 43-587): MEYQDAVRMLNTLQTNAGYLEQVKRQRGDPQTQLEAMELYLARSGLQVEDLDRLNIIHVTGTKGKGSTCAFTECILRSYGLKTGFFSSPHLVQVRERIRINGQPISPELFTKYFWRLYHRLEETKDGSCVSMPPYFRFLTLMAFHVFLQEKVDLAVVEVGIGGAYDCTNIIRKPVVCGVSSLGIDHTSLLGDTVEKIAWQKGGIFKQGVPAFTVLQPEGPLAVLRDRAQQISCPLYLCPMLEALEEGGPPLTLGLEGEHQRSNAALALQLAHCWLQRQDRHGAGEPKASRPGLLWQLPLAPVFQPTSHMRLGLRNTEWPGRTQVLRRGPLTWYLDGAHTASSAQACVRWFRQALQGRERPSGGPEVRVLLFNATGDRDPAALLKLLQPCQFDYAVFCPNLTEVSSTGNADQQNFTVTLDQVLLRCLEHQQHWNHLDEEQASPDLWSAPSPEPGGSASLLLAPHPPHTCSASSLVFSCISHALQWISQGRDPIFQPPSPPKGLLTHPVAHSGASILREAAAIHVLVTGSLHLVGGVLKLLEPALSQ
Description: Compounds 1, 2 and 3 were evaluated as substrates of purified human leukemia cell folylpolyglutamate synthetase (FPGS).
The assays were performed as described by McGuire, Graber, Licato, Vincenz, Coward, Nimec and Galivan in Cancer Research 49:4517 (1989).

[9] = cited from earlier work; remark: listed apart in the source
[10] = system: antitumor activity; details: result in words; cited from earlier work
[11] = system: mammalian cells; details: versus MTX; cited from earlier work
[12] = system: three tumor models; experiment: Antitumor activity in three tumor models (Table I); assay type: cell-based; details: result in words
Description: Manca cell growth assay was performed as described by Thorndike, Gaumont, Kisliuk, Sirotnak, Murthy and Nair in Cancer Research 49:158 (1989). Growth inhibition of H35hepatoma cells was measured as described by Patil, Jones, Nair, Galivan, Maley, Kisliuk, Gaumont, Duch and Ferone in the Journal of Medicinal Chemistry 32:1284 (1989) and that of CCRF-CEM human leukemia cells according to the procedures of McGuire, Graber, Licato, Vincenz, Coward, Nimec and Galivan (Cancer Research 49:4517, 1989).

[13] = assay type: physicochemical
Description: In stage II the mixed anhydride 6 or 7 is reacted with an excess amount of a diester of .tau.-methyleneglutamic acid such as diethyl-.tau.-methyleneglutamic acid. Dimethyl, dibenzyl or di-t-butyl-.tau.-methylene glutamic acid may be substituted for the diethyl derivative. Diethyl-.tau.-methylene glutamate may be added as the hydrochloride form to the mixed anhydride solutions 6 or 7, followed by the addition of an equal amount or an excess of an acid acceptor such as triethylamine. Alternatively, diethyl-.tau.-methyleneglutamate hydrochloride may be dissolved in a suitable solvent such as DMF, neutralized with an equivalent amount of the acid acceptor, and then added to the mixed anhydride solution. This reaction mixture is stirred for 18 hours at 25-30° C. and the solvent is removed by evaporation under reduced pressure. The resulting coupled product is stirred with an excess of a mixture of 0.1 N NaOH and acetonitrile for 18 hours to give target compounds 1 or 2. […] The precipitate can be recovered by filtration, washed and dried.
For the preparation of compound 3 (Scheme 3), the solution of the mixed anhydride 6 is reacted with an excess amount of the diester of 3-hydroxyglutamic acid such as dimethyl-3-hydroxyglutamate. Diethyl, dibenzyl or di-t-butyl-3-hydroxyglutamate may be substituted for the dimethyl derivative. Dimethyl-3-hydroxyglutamate may be added to the solution of the mixed anhydrie as the hydrochloride followed by the addition of an equivalent or excess amount of the acid acceptor such as triethylamine. Alternatively, dimethyl-3-hydroxyglutamate hydrochloride may be dissolved in a suitable solvent such as DMF, neutralized with an equivalent amount of the acid acceptor such as triethylamine or N-methylmorpholine and then added to the mixed anhydride solution. The reaction mixture is then stirred for 18-24 hours at 25-30° C. and the solvent is removed by rotary evaporation under reduced pressure The resulting product is stirred with an excess of a 3:1 mixture of 0.1 N NaOH:acetonitrile for 10-18 hours to give target compound 3. […]

[14] = target: T2, human dihydrofolate reductase (Homo sapiens, UniProt P00374); experiment: Inhibition of dihydrofolate reductase; assay type: biochemical; details: pure human enzyme from lymphoblastoid cells
T2 construct: Pure human dihydrofolate reductase from lymphoblastoid cells were used; endogenous in cells
T2 sequence (P00374 1-187): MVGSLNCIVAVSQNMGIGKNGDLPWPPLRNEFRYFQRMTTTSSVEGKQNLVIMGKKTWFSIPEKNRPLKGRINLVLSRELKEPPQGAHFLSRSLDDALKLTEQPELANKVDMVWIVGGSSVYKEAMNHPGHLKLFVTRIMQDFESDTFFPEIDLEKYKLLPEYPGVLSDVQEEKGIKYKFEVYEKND
Description: Pure human dihydrofolate reductase from lymphoblastoid cells were used. The enzymatic assay was performed as described by Pastore, Plante and Kisliuk in Methods in Enzymology 34:281 (1974).

[15] = Homo sapiens; CCRF-CEM; value marked *: corrected for the presence of the d-enantiomer of methyleneglutamate; duplicate experiments; read-out: I50, inhibition of tumor cell growth, CCRF-CEM human leukemia (*)
[16] = Homo sapiens; CCRF-CEM; values correspond to duplicate experiments; no asterisk; read-out: I50, inhibition of tumor cell growth, CCRF-CEM human leukemia
[17] = human leukemia cells; on a comparative basis

Compound | IC50 [1] [nM] | IC50 [2] [nM] | metabolism to polyglutamyl derivatives [3] | IC50 [7] [nM] | Substrate activity [8] | antitumor activity in three tumor models [12] | solubility in alkali [13] | substrate for folylpolyglutamate synthetase [8] | IC50 [14] [nM] | also measured
CN(Cc1cnc2nc(N)nc(N)c2n1)c1ccc(C(=O)N[C@@H](CCC(=O)O)C(=O)O)cc1 [Methotrexate, reference compound] | 18 | 6 | undergo polyglutamylation | 10 |  |  |  |  |  | metabolism to polyglutamyl derivatives ([3]; listed as MTX): metabolized to their poly-.tau.-glutamyl derivatives; metabolism to poly-glutamates in human tissues [4]: metabolism of the well known anticancer drug methotrexate to its poly-.tau.-glutamates in human tissues; IC50 ([5]; CCRF-CEM; values correspond to duplicate experiments; no asterisk; read-out: I50, inhibition of tumor cell growth, CCRF-CEM human leukemia): 8 nM; IC50 ([5]; Homo sapiens, CCRF-CEM; values correspond to duplicate experiments; no asterisk; read-out: I50, inhibition of tumor cell growth, CCRF-CEM human leukemia): 12 nM; formation of poly-glutamyl metabolites in rodent tissues [6]: formation of these metabolites in rodent tissues
Nc1nc(N)c2nc(CCc3ccc(C(=O)N[C@@H](CCC(=O)O)C(=O)O)cc3)cnc2n1 [10-Deazaaminopterin, reference compound] |  |  | undergo polyglutamylation |  | 1020 |  |  |  |  | 
C#CCN(Cc1ccc2nc(N)[nH]c(=O)c2c1)c1ccc(C(=O)N[C@@H](CCC(=O)O)C(=O)O)cc1 [CB 3717, N^10-propargyl-5,8-dideazafolic acid] |  |  |  |  |  |  |  |  |  | conversion to polyglutamyl derivative in normal murine tissues [9]: converted to its polyglutamyl derivatives in normal murine tissues
CCC(Cc1cnc2nc(N)nc(N)c2n1)c1ccc(C(=O)N[C@@H](CCC(=O)O)C(=O)O)cc1 (stereo partly shown) [Compound 10-EDAM, 10-ethyl-10-deazaaminopterin] |  |  | metabolized to their poly-.tau.-glutamyl derivatives |  |  |  |  |  |  | metabolism to polyglutamyl derivatives ([3]; listed as 10-ethyl derivative): undergo polyglutamylation; antitumor activity [10]: wide spectrum of antitumor activity; transport to mammalian cells compared to MTX [11]: enhanced transport to mammalian cells compared to MTX
C=C(CC(NC(=O)c1ccc(C(CC)Cc2cnc3nc(N)nc(N)c3n2)cc1)C(=O)O)C(=O)O (stereo not shown) [Compound 2, 4-amino-4-deoxy-10-ethyl-10-deazapteroyl-.tau.-methyleneglutamic acid] | 3 | 9 |  | 11 | 3 and 6 | excellent antitumor activity | soluble in alkali | not substrates of CCRF-CEM human leukemia cell folylpolyglutamate synthetase; also recorded: None of the new antifolates (1, 2 or 3) is a substrate for folylpolyglutamate synthetase | 32 | transport to H35 hepatoma cells compared to methotrexate [1]: transported more efficiently to H35 hepatoma cells than methotrexate; transport to tumor cells compared to methotrexate [1]: three to five times more efficiently than methotrexate; IC50 [5, 15]: 6 nM; IC50 [5, 16]: 4 nM; inhibition of growth of human leukemia cells compared to methotrexate [5, 17]: twice as powerful as methotrexate
C=C(CC(NC(=O)c1ccc(CCc2cnc3nc(N)nc(N)c3n2)cc1)C(=O)O)C(=O)O (stereo not shown) [Compound 1, 4-amino-4-deoxy-10-deazapteroyl-.tau.-methyleneglutamic acid] | 4 | 7 |  | 9 | 5 and 3 | excellent antitumor activity | soluble in alkali | not substrates of CCRF-CEM human leukemia cell folylpolyglutamate synthetase; also recorded: None of the new antifolates (1, 2 or 3) is a substrate for folylpolyglutamate synthetase | 30 | transport to H35 hepatoma cells compared to methotrexate [1]: transported more efficiently to H35 hepatoma cells than methotrexate; transport to tumor cells compared to methotrexate [1]: three to five times more efficiently than methotrexate; IC50 [5, 15]: 5 nM; IC50 [5, 16]: 4 nM; inhibition of growth of human leukemia cells compared to methotrexate [5, 17]: twice as powerful as methotrexate
Nc1nc(N)c2nc(CCc3ccc(C(=O)NC(C(=O)O)C(O)CC(=O)O)cc3)cnc2n1 (stereo not shown) [Compound 3, 4-amino-4-deoxy-10-deazapteroyl-3-hydroxyglutamic acid] |  | 15 |  | 28 | 8 and 10 | excellent antitumor activity | soluble in alkali | not substrates of CCRF-CEM human leukemia cell folylpolyglutamate synthetase; also recorded: None of the new antifolates (1, 2 or 3) is a substrate for folylpolyglutamate synthetase | 33 | 
